Measurements taken from PubChem BioAssay AID260 (DTP/NCI, 2004).
“And” between values parts separate entries of the source, which are not always exact repeats. Equal entries are not always repeated. Inconclusive results and toxic doses are left out. How the source made its calls: active means survival T/C of 150% or more; inactive means T/C below 125% in these data.

Test system: CD2F1 mice, intracerebral L1210 leukemia, survival T/C
Test: NCI In Vivo Anticancer Drug Screen. Data for tumor model L1210 Leukemia (intracerebral) in CD2F1 (CDF1) mice
Details: higher = longer survival
Description: The antitumor activity of compounds was measured in mice bearing transplantable tumors. Survival or tumor size were measured and the results are expressed as the measurement made in the treated group (T) divided by the measurement made in the vehicle treated control group (C). The tumor model used in this assay is L1210 Leukemia (intracerebral) in CD2F1 (CDF1) mice

[1] = endpoint: median survival time, dose: 16.0 mg/kg/injection, schedule: Q01DX005 (ip), vehicle: saline
[2] = endpoint: median survival time, dose: 32.0 mg/kg/injection, schedule: Q01DX005 (ip), vehicle: saline
[3] = endpoint: median survival time, dose: 64.0 mg/kg/injection, schedule: Q01DX005 (ip), vehicle: saline
[4] = endpoint: median survival time, dose: 16.0 mg/kg/injection, schedule: Q01DX005 (ip), vehicle: saline with Tween-80
[5] = endpoint: median survival time, dose: 32.0 mg/kg/injection, schedule: Q01DX005 (ip), vehicle: saline with Tween-80
[6] = endpoint: median survival time, dose: 64.0 mg/kg/injection, schedule: Q01DX005 (ip), vehicle: saline with Tween-80
[7] = endpoint: median survival time, dose: 128.0 mg/kg/injection, schedule: Q01DX005 (ip), vehicle: saline with Tween-80

Measured: T/C

CSCS(=O)C[C@H](CO)NC(=O)/C=C/c1c(C)[nH]c(=O)[nH]c1=O (stereo partly specified)
inactive: endpoint: median survival time, dose: 0.06 mg/kg/injection, schedule: Q01DX005 (ip), vehicle: Klucel (hydroxypropylcellulose) (HPC) 97 % of control and 102 % of control | endpoint: median survival time, dose: 0.12 mg/kg/injection, schedule: Q01DX005 (ip), vehicle: Klucel (hydroxypropylcellulose) (HPC) 100 % of control and 101 % of control | endpoint: median survival time, dose: 0.25 mg/kg/injection, schedule: Q01DX005 (ip), vehicle: Klucel (hydroxypropylcellulose) (HPC) 100 % of control and 105 % of control | endpoint: median survival time, dose: 0.5 mg/kg/injection, schedule: Q01DX005 (ip), vehicle: Klucel (hydroxypropylcellulose) (HPC) 100 % of control and 102 % of control

COc1ccc2cc1Oc1ccc(cc1)C[C@H]1c3cc(c(OC)cc3CCN1C)Oc1c(OC)c(OC)cc3c1[C@H](C2)N(C)CC3
inactive: endpoint: median survival time, dose: 50.0 mg/kg/injection, schedule: Q01DX005 (ip), vehicle: Klucel (hydroxypropylcellulose) (HPC) 90 % of control and 91 % of control | endpoint: median survival time, dose: 100.0 mg/kg/injection, schedule: Q01DX005 (ip), vehicle: Klucel (hydroxypropylcellulose) (HPC) 95 % of control and 98 % of control | endpoint: median survival time, dose: 200.0 mg/kg/injection, schedule: Q01DX005 (ip), vehicle: Klucel (hydroxypropylcellulose) (HPC) 95 % of control and 104 % of control | endpoint: median survival time, dose: 400.0 mg/kg/injection, schedule: Q01DX005 (ip), vehicle: Klucel (hydroxypropylcellulose) (HPC) 101 % of control

CN(Cc1cnc2nc(N)nc(N)c2n1)c1c(Cl)cc(C(=O)NC(CCC(=O)O)C(=O)O)cc1Cl (stereo unspecified)
inactive: [1] 101 % of control and 111 % of control | [2] 111 % of control | [3] 119 % of control and 120 % of control

CCCCN(C)N=Nc1c(C(N)=O)n[nH]c1C
inactive: [4] 108 % of control | [5] 112 % of control | [6] 96 % of control

CN(C)/N=N/c1[nH]ncc1C(N)=O
inactive: [5] 112 % of control | [7] 122 % of control | endpoint: median survival time, dose: 256.0 mg/kg/injection, schedule: Q01DX005 (ip), vehicle: saline with Tween-80 114 % of control

CC1(C)N=C(N)N=C(N)N1c1ccc(CCC(=O)Nc2ccc(S(=O)(=O)F)cc2)c(Cl)c1
inactive: endpoint: mean survival time, dose: 6.25 mg/kg/injection, schedule: Q01DX009 (ip), vehicle: saline 94 % of control | endpoint: mean survival time, dose: 12.5 mg/kg/injection, schedule: Q01DX009 (ip), vehicle: saline 94 % of control | endpoint: mean survival time, dose: 25.0 mg/kg/injection, schedule: Q01DX009 (ip), vehicle: saline 94 % of control | endpoint: mean survival time, dose: 50.0 mg/kg/injection, schedule: Q01DX009 (ip), vehicle: saline 98 % of control

COS(C)(=O)=O
inactive: [1] 107 % of control and 108 % of control | [2] 120 % of control | [3] 113 % of control | endpoint: median survival time, dose: 128.0 mg/kg/injection, schedule: Q01DX005 (ip), vehicle: saline 107 % of control and 111 % of control

CC(=O)c1ccc(N=NN(C)C)cc1
inactive: endpoint: mean survival time, dose: 5.0 mg/kg/injection, schedule: Q01DX007 (ip), vehicle: other 107 % of control | endpoint: mean survival time, dose: 10.0 mg/kg/injection, schedule: Q01DX007 (ip), vehicle: other 89 % of control | endpoint: mean survival time, dose: 20.0 mg/kg/injection, schedule: Q01DX007 (ip), vehicle: other 97 % of control | endpoint: mean survival time, dose: 40.0 mg/kg/injection, schedule: Q01DX007 (ip), vehicle: other 103 % of control | endpoint: mean survival time, dose: 60.0 mg/kg/injection, schedule: Q01DX007 (ip), vehicle: other 93 % of control

CN(N=O)C(=O)Nc1c[nH]c(=O)[nH]c1=O
inactive: endpoint: median survival time, dose: 8.0 mg/kg/injection, schedule: Q01DX005 (ip), vehicle: saline with Tween-80 100 % of control | [4] 103 % of control | [5] 100 % of control | [6] 110 % of control | [7] 119 % of control

CC1CC(C)(O)CC(C(O)CC2CC(=O)NC(=O)C2)C1=O (stereo unspecified)
inactive: endpoint: mean survival time, dose: 0.02 mg/kg/injection, schedule: Q01DX009 (ip), vehicle: saline 97 % of control | endpoint: mean survival time, dose: 0.04 mg/kg/injection, schedule: Q01DX009 (ip), vehicle: saline 92 % of control | endpoint: mean survival time, dose: 0.08 mg/kg/injection, schedule: Q01DX009 (ip), vehicle: saline 110 % of control | endpoint: mean survival time, dose: 0.16 mg/kg/injection, schedule: Q01DX009 (ip), vehicle: saline 100 % of control | endpoint: mean survival time, dose: 0.32 mg/kg/injection, schedule: Q01DX009 (ip), vehicle: saline 106 % of control

F
inactive: [1] 100 % of control and 104 % of control | [2] 88 % of control and 105 % of control

COc1cc2c(c3c1c(=O)c1ccccc1n3C)C=CC(C)(C)O2
inactive: endpoint: median survival time, dose: 128.0 mg/kg/injection, schedule: Q01DX005 (ip), vehicle: Klucel (hydroxypropylcellulose) (HPC) 108 % of control

Nc1ccn([C@@H]2C=C(CO)[C@@H](O)[C@H]2O)c(=O)n1
inactive: endpoint: median survival time, dose: 0.44 mg/kg/injection, schedule: Q01DX009 (ip), vehicle: saline 103 % of control | endpoint: median survival time, dose: 0.67 mg/kg/injection, schedule: Q01DX009 (ip), vehicle: saline 114 % of control | endpoint: median survival time, dose: 2.25 mg/kg/injection, schedule: Q01DX009 (ip), vehicle: saline 120 % of control | endpoint: median survival time, dose: 3.76 mg/kg/injection, schedule: Q01DX009 (ip), vehicle: saline 92 % of control

CC/C(=C(/CC)c1ccc(O)cc1)c1ccc(O)cc1
inactive: endpoint: median survival time, dose: 8.0 mg/kg/injection, schedule: Q01DX009 (ip), vehicle: saline 104 % of control and 113 % of control | [4] 93 % of control and 106 % of control | endpoint: median survival time, dose: 16.0 mg/kg/injection, schedule: Q01DX009 (ip), vehicle: saline 104 % of control and 113 % of control | [5] 93 % of control and 103 % of control | endpoint: median survival time, dose: 32.0 mg/kg/injection, schedule: Q01DX009 (ip), vehicle: saline 98 % of control and 112 % of control | [6] 103 % of control and 116 % of control | endpoint: median survival time, dose: 64.0 mg/kg/injection, schedule: Q01DX009 (ip), vehicle: saline 105 % of control and 112 % of control | [7] 103 % of control and 105 % of control | endpoint: median survival time, dose: 256.0 mg/kg/injection, schedule: Q01DX009 (ip), vehicle: saline 112 % of control | endpoint: median survival time, dose: 512.0 mg/kg/injection, schedule: Q01DX009 (ip), vehicle: saline 86 % of control

O=NN(CCCl)C(=O)NC1C(O)C(O)C(O)C(O)C1O (stereo unspecified)
inactive: endpoint: mean survival time, dose: 9.0 mg/kg/injection, schedule: Q01DX001 (ip), vehicle: saline 110 % of control | endpoint: mean survival time, dose: 13.0 mg/kg/injection, schedule: Q01DX001 (ip), vehicle: saline 117 % of control | endpoint: mean survival time, dose: 44.0 mg/kg/injection, schedule: Q01DX001 (ip), vehicle: saline 115 % of control | endpoint: mean survival time, dose: 67.0 mg/kg/injection, schedule: Q01DX001 (ip), vehicle: saline 95 % of control

CCCN(C)/N=N/c1nc[nH]c1C(N)=O
inactive: endpoint: median survival time, dose: 4.0 mg/kg/injection, schedule: Q01DX005 (ip), vehicle: suspension in saline 105 % of control | endpoint: median survival time, dose: 8.0 mg/kg/injection, schedule: Q01DX005 (ip), vehicle: suspension in saline 109 % of control | endpoint: median survival time, dose: 16.0 mg/kg/injection, schedule: Q01DX005 (ip), vehicle: suspension in saline 112 % of control | endpoint: median survival time, dose: 32.0 mg/kg/injection, schedule: Q01DX005 (ip), vehicle: suspension in saline 118 % of control | endpoint: median survival time, dose: 64.0 mg/kg/injection, schedule: Q01DX005 (ip), vehicle: suspension in saline 124 % of control
